Test results: PubChem BioAssay (NCI)
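GI50 = concentration required for 50% inhibition of growth. TGI marks complete inhibition of growth.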

Tests used:
Assay in all cases: NCI anticancer screen, dose series, 384-well format
MDA-MB-231 breast = test system: MDA-MB-231 breast
MCF7 breast = test system: MCF7 breast
SF-295 CNS = test system: SF-295 CNS
UACC-257 melanoma = test system: UACC-257 melanoma
RPMI-8226 leukemia = test system: RPMI-8226 leukemia
SN12C renal = test system: SN12C renal
HS 578T breast = test system: HS 578T breast
TK-10 renal = test system: TK-10 renal
UACC-62 melanoma = test system: UACC-62 melanoma
IGROV1 ovarian = test system: IGROV1 ovarian
RXF 393 renal = test system: RXF 393 renal
NCI-H23 lung = test system: NCI-H23 lung
M14 melanoma = test system: M14 melanoma

Row | Compound | GI50 (MDA-MB-231 breast) [µM] | TGI (MDA-MB-231 breast) [µM] | GI50 (MCF7 breast) [µM] | TGI (MCF7 breast) [µM] | GI50 (SF-295 CNS) [µM] | TGI (SF-295 CNS) [µM] | GI50 (UACC-257 melanoma) [µM] | TGI (UACC-257 melanoma) [µM] | GI50 (RPMI-8226 leukemia) [µM] | TGI (RPMI-8226 leukemia) [µM] | GI50 (SN12C renal) [µM] | TGI (SN12C renal) [µM] | GI50 (HS 578T breast) [µM] | TGI (HS 578T breast) [µM] | GI50 (TK-10 renal) [µM] | TGI (TK-10 renal) [µM] | GI50 (UACC-62 melanoma) [µM] | TGI (UACC-62 melanoma) [µM] | GI50 (IGROV1 ovarian) [µM] | TGI (IGROV1 ovarian) [µM] | further results
1 | Cc1ccc(-c2nc(N)nc3c2nnn3Cc2cccc(CO[C@H]3CCOC3)n2)o1 | 88.2 | > 100 | > 100 | > 100 | > 100 | > 100 | > 100 | > 100 | 93.6 | > 100 | > 100 | > 100 | > 100 | > 100 | > 100 | > 100 | > 100 | > 100 | > 100 | > 100 | GI50 (RXF 393 renal): 97.4 µM; TGI (RXF 393 renal): > 100 µM; GI50 (NCI-H23 lung): > 100 µM; TGI (NCI-H23 lung): > 100 µM; GI50 (M14 melanoma): > 100 µM; TGI (M14 melanoma): > 100 µM
2 | Cc1cc(-c2nnc(N)nc2-c2ccc(F)cc2)cc(Cl)n1 | > 85.7 | > 100 | > 100 | > 100 | > 84.4 | > 100 | 66.5 | > 100 | 20.3 | > 61.2 | > 100 | > 100 | 62.8 | > 100 | 44.3 | > 100 | 75.7 | > 100 | > 90.4 | > 100 | GI50 (RXF 393 renal): 28.5 µM; TGI (RXF 393 renal): > 100 µM; GI50 (NCI-H23 lung): 32.5 µM; TGI (NCI-H23 lung): > 100 µM; GI50 (M14 melanoma): > 100 µM; TGI (M14 melanoma): > 100 µM
